Tested on: Spleen cells
Assay: Mitogenesis Assay for Immunosuppressive Activity (Concanavalin A, 3H-thymidine)
Format: cell-based, BDF1 female mice
Details: Mus musculus; Concanavalin A 5 μg/ml, 72 hours, 3H-thymidine last 18 hours
Description: Spleen cells for BDF1 female mice were established in RPMI with 10% fetal calf serum at 5×10^6 /mL. One hundred […] of this suspension (5×10^5 cells) were dispensed into 96-well round-bottomed microtiter plates (Linbro, Flow Laboratories). Concanavalin A (5 μg/ml) was added as the mitogenic stimulus, and the final volume in the microtiter wells was adjusted to 200 μL with RPMI. Cell cultures were incubated for 72 hours at 37° C. in a 5% CO2 atmosphere and pulsed with 0,5 μCi ^3 H-thymidine (specific activity […]) for the last 18 hours of the 72 hours culture. The cells were harvested on an automated multiple sample harvester and cell-associated radioactivity counted in a Beckman liquid scintillation counter. The results were expressed as the mean values derived from quadruplicate measurements. Cell viability was determined by trypan blue exclusion after 72 hours of incubation. Compounds to be tested were added to the microtiter plates at the appropriate dilutions prior to the addition of cells.

COC1C(=O)C(C)CC(C)C=CC=CC=C(C)C(O)CC2CCC(C)C(O)(O2)C(=O)C(=O)N2CCCCC2C(=O)OC(C(C)CC2CCC(O)C(O)C2)CC(=O)C(C)C=C(C)C1O (stereo not shown) [7,42-Bis(O-demethyl)rapamycin]
IC50: 10 to 130 nM

Reference: US5597715A, “7,42-Bis(O-demethyl)rapamycin” (SmithKline Beecham p.l.c., priority 1993, dated 1997)
